Test results reported in patent US9758485B2, “Compounds for controlling arthropods” (priority 2013, dated 2017).

Columns and labels:
Ctenocephalides felis [1] = test: Ctenocephalides felis - oral test; assay type: in vivo; conditions: application rate 100 ppm in citrated cattle blood; adult fleas; kill after 2 days
Summary of the method: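 Mortality in % was recorded 2 days after about 20 unfed adult cat fleas were allowed to imbibe citrated cattle blood containing the active ingredient through a parafilm membrane. The compound was first taken up in DMSO and then diluted with the blood to the desired concentration.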

Lucilia cuprina = Lucilia cuprina test; assay type: in vivo; conditions: application rate 100 ppm; L1 larvae in minced horsemeat; kill after 2 days
Summary of the method: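 About 20 L1 larvae placed on minced horsemeat treated with compound, formulated in DMSO and diluted with water to test concentration. Kill in % scored after 2 days (100% = all larvae dead, 0% = none).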

Rhipicephalus sanguineus = Rhipicephalus sanguineus - in vitro contact tests with adult brown dog ticks; assay type: in vivo
Experimental: Rhipicephalus sanguineus—In Vitro Contact Tests with Adult Brown Dog Ticks
For the coating of the test tubes, 9 mg of active ingredient are first dissolved in 1 ml of acetone p.a. and then diluted to the desired concentration with acetone p.a. 250 μl of the solution are distributed homogeneously on the inner walls and base of a 25 ml test tube by turning and rocking on an orbital shaker (rocking rotation at 30 rpm for 2 h). With 900 ppm active ingredient solution and internal surface 44.7 cm^2, given homogeneous distribution, an area-based dose of 5 μg/cm^2 is achieved.
After the solvent has evaporated off, the tubes are populated with 5-10 adult dog ticks (Rhipicephalus sanguineus), sealed with a perforated plastic lid and incubated in a horizontal position in the dark at room temperature and ambient humidity. After 48 h, efficacy is determined. To this end, the ticks are knocked to the floor of the tube and incubated on a hotplate at 45-50° C. for not more than 5 min. Ticks which remain motionless on the floor or move in such an uncoordinated manner that they are unable to deliberately avoid the heat by climbing upwards are considered to be dead or moribund.
An efficacy of 100% means that all the ticks were dead or moribund. 0% efficacy means that none of the ticks had been harmed.

Amblyomma hebraeum = Amblyomma hebraeum test (tick nymphs, immersion); assay type: in vivo; conditions: application rate 100 ppm; tick nymphs immersed for one minute; kill after 42 days
Experimental: (§1) Solvent: dimethyl sulphoxide
To produce an appropriate active ingredient formulation, 10 mg of active ingredient are mixed with 0.5 ml of dimethyl sulphoxide, and the concentrate is diluted with water to the desired concentration.
Tick nymphs (Amblyomma hebraeum) are placed into perforated plastic beakers and immersed in the desired concentration for one minute. The ticks are transferred on filter paper into a Petri dish and stored in a climate-controlled cabinet.
After 42 days, the kill in % is determined. 100% means that all of the ticks have been killed; 0% means that none of the ticks have been killed.

Ctenocephalides felis [2] = test: Ctenocephalides felis - in vitro contact tests with adult cat fleas; assay type: in vivo; conditions: application rate 5 μg/cm^2 (=500 g/ha), after 48 h (dead or moribund)
Summary of the method: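 Acetone solution coated on test-tube inner walls (900 ppm gives 5 μg/cm^2). After drying, 5-10 adult cat fleas added and kept horizontal at room temperature and ambient humidity. At 48 h fleas knocked down; motionless or uncoordinated ones counted dead/moribund, giving % efficacy.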

Boophilus microplus = Boophilus microplus - injection test; assay type: in vivo; conditions: application rate 20 μg/animal; injected into engorged adult female ticks; laying of fertile eggs, after 7 days
Summary of the method: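 Engorged adult female ticks, five per dose, were injected in the abdomen with 1 μl of active ingredient diluted in dimethyl sulphoxide. Animals were kept in dishes under climate control, and egg fertility was assessed after 7 days.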

Musca domestica = Musca domestica test; assay type: in vivo; conditions: application rate 100 ppm; adult houseflies; kill after 2 days
Summary of the method: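 Percent kill of adult houseflies is recorded 2 days after exposure, where 100% denotes all flies dead and 0% none. Flies (10 per vessel) feed from a sponge carrying sugar solution and the aqueous-diluted DMSO formulation.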

[3] = logP determination by HPLC on a reversed-phase column (C18), EEC Directive 79/831 Annex V.A8; assay type: physicochemical; conditions: for logP^a): HPLC-MS method a), Table I-T3; for log P: HPLC-MS, reversed-phase column (C18)
[4] = tested on: Boophilus microplus Parkhurst strain, SP-resistant; test: Boophilus microplus - dip test; assay type: in vivo; conditions: application rate 100 ppm; dip of engorged adult female ticks; laying of fertile eggs, after 7 days
Experimental: Boophilus microplus—Dip Test
Test animals: cattle ticks (Boophilus microplus) Parkhurst strain, SP-resistant
as §1
10 mg of active ingredient are dissolved in 0.5 ml of dimethyl sulphoxide. For the purpose of producing a suitable formulation, the active ingredient solution is diluted with water to the concentration desired in each case.
This active ingredient formulation is pipetted into tubes. 8-10 adult engorged female cattle ticks (Boophilus microplus) are transferred into a further tube with holes. The tube is immersed into the active ingredient formulation, and all the ticks are completely wetted. After the liquid has run out, the ticks are transferred on filter discs into plastic dishes and stored in a climate-controlled room.
Efficacy is assessed after 7 days by laying of fertile eggs. Eggs which are not visibly fertile are stored in a climate-controlled cabinet until the larvae hatch after about 42 days. An efficacy of 100% means that none of the ticks has laid any fertile eggs; 0% means that all the eggs are fertile.

[5] = application rate 5 μg/cm^2, after 48 h (dead or moribund)

| SMILES | efficacy (Ctenocephalides felis [1]) | efficacy (Lucilia cuprina) | efficacy (Rhipicephalus sanguineus; [5]) | efficacy (Amblyomma hebraeum) | efficacy (Ctenocephalides felis [2]) | efficacy (Boophilus microplus) | efficacy (Musca domestica) | logP^a) [3] | efficacy [4] | log P [3] | efficacy (Rhipicephalus sanguineus; application rate 0.2 μg/cm^2, after 48 h (dead or moribund)) | logP ([3]; HPLC, reversed-phase C18, acetonitrile/water with formic acid, 55° C.) |
| --- | --- | --- | --- | --- | --- | --- | --- | --- | --- | --- | --- | --- |
| Cc1cc(C(F)(C(F)(F)F)C(F)(F)F)cc(C)c1-n1cc(-c2ccc(Cl)c(C(=O)NC3(C#N)CC3)c2)cn1 [I-T3-3] | 100% | 100% | 100% | 100% | 100% | 100% | 100% | 4.2 | 100% | – | – | – |
| Cc1cc(C(F)(C(F)(F)F)C(F)(F)F)cc(C)c1-n1cc(-c2cnc(Cl)c(C(=O)NC3CC3)c2)cn1 [I-T3-20] | 100% | 100% | 100% | 100% | 100% | 100% | 100% | 3.8 | 100% | – | – | – |
| CCc1cc(C(F)(C(F)(F)F)C(F)(F)F)cc(C)c1-n1cc(-c2ccc(Cl)c(C(=O)NC3CC3)c2)cn1 [I-T3-44] | 100% | 100% | 100% | 100% | 100% | 100% | – | 4.7 | 100% | – | – | – |
| N#CC1(NC(=O)c2cc(-c3cnn(-c4ccc(C(F)(C(F)(F)F)C(F)(F)F)cc4C(F)(F)F)c3)ccc2Cl)CC1 [I-T3-53] | 100% | 100% | 100% | 80% | – | 100% | 100% | 4.3 | 100% | – | – | – |
| N#CC1(NC(=O)c2cc(-c3cnn(-c4c(Cl)cc(C(F)(C(F)(F)F)C(F)(F)F)cc4C(F)(F)F)c3)ccc2Cl)CC1 [I-T3-57] | 100% | 100% | – | 100% | 100% | 100% | 100% | 4.3 | 100% | – | – | – |
| Cc1cc(C(F)(C(F)(F)F)C(F)(F)F)cc(Br)c1-n1cc(-c2ccc(Cl)c(C(=O)NC3CC3)c2)cn1 [I-T3-86] | 100% | 100% | – | 100% | 100% | 100% | 100% | 4.5 | 100% | – | – | – |
| N#CC1(NC(=O)c2cc(-c3cnn(-c4c(Cl)cc(C(F)(F)F)cc4Cl)c3)cnc2Cl)CC1 [I-T3-95] | 100% | – | – | 100% | 100% | 100% | – | – | 100% | 3.1 | – | – |
| CN(C(=O)c1cc(-c2cnn(-c3c(Cl)cc(C(F)(C(F)(F)F)C(F)(F)F)cc3Cl)c2)cnc1Cl)C1CC1 [I-T3-100] | 100% | 100% | – | 100% | 100% | 100% | 100% | – | 100% | 4.4 | – | – |
| Cc1cc(C(F)(C(F)(F)F)C(F)(F)F)cc(C)c1-n1cc(-c2cnc(Cl)c(C(=O)N(C)C3CC3)c2)cn1 [I-T3-101] | 100% | 100% | – | 95% | 100% | 100% | 100% | – | 100% | 4.4 | – | – |
| CN(C(=O)c1cc(-c2cnn(-c3c(Cl)cc(C(F)(C(F)(F)F)C(F)(F)F)cc3Cl)c2)cnc1Cl)C1(C#N)CC1 [I-T3-102] | 100% | 100% | – | 90% | 100% | 100% | 100% | – | 100% | 4.3 | – | – |
| Cc1cc(C(F)(C(F)(F)F)C(F)(F)F)cc(C)c1-n1cc(-c2cnc(Cl)c(C(=O)N(C)C3(C#N)CC3)c2)cn1 [I-T3-103] | 100% | 100% | – | 90% | 100% | 100% | 100% | – | 100% | 4.3 | – | – |
| CCc1cc(C(F)(C(F)(F)F)C(F)(F)F)ccc1-n1cc(-c2cnc(Cl)c(C(=O)NC3CC3)c2)cn1 [I-T3-104] | 100% | 100% | 100% | 100% | – | 100% | 100% | – | 100% | 4.2 | – | – |
| CCc1cc(C(F)(C(F)(F)F)C(F)(F)F)ccc1-n1cc(-c2cnc(Cl)c(C(=O)NC3(C#N)CC3)c2)cn1 [I-T3-105] | 100% | 100% | – | 85% | – | 100% | 80% | – | – | 4.1 | 100% | – |
| Cc1cc(C(F)(C(F)(F)F)C(F)(F)F)cc(C(F)(F)F)c1-n1cc(-c2cnc(Cl)c(C(=O)N(C)C3CC3)c2)cn1 [I-T3-107] | 100% | 100% | – | 100% | 100% | 100% | 100% | – | 100% | 4.5 | – | – |
| Cc1cc(C(F)(C(F)(F)F)C(F)(F)F)cc(C(F)(F)F)c1-n1cc(-c2cnc(Cl)c(C(=O)N(C)C3(C#N)CC3)c2)cn1 [I-T3-111] | 100% | 100% | – | 80% | 100% | 100% | 100% | – | 98% | 4.4 | – | – |
| CN(C(=O)c1cc(-c2cnn(-c3c(Cl)cc(C(F)(C(F)(F)F)C(F)(F)F)cc3C(F)(F)F)c2)cnc1Cl)C1(C#N)CC1 [I-T3-116] | 100% | 100% | – | 100% | 100% | 100% | 100% | – | 100% | 4.3 | – | – |
| Cc1ncc(-c2cnn(-c3c(Cl)cc(C(F)(C(F)(F)F)C(F)(F)F)cc3C(F)(F)F)c2)cc1C(=O)NC1CC1 [I-T3-124] | 100% | 100% | – | 100% | 100% | 100% | 100% | – | 100% | 3.5 | – | – |
| Cc1ncc(-c2cnn(-c3c(Cl)cc(C(F)(C(F)(F)F)C(F)(F)F)cc3C(F)(F)F)c2)cc1C(=O)N(C)C1(C#N)CC1 [I-T3-131] | 100% | 100% | – | 100% | 100% | 100% | 100% | – | 100% | 3.9 | – | – |
| Cc1cc(C(F)(C(F)(F)F)C(F)(F)F)cc(C)c1-c1cnn(-c2cnc(Cl)c(C(=O)NC3(C#N)CC3)c2)c1 [I-T4-4] | 100% | 100% | 100% | 100% | 100% | 100% | – | – | 100% | – | – | 4.3 |
